The test has as its target Serine/threonine-protein kinase PLK1 (Homo sapiens, UniProt P53350). In words: H2O2 production by redox-active compounds – biochemical, 1 mM DTT, artefact control for Plk1 PBD inhibitor project, dose response (AID 936).

Drawing on BindingDB's records for doi:10.7270/Q2N58JS6 (University of Pittsburgh, 2007), this text covers EC50 for eight compounds.

Serine/threonine-protein kinase PLK1, sequence (P53350 whole entry): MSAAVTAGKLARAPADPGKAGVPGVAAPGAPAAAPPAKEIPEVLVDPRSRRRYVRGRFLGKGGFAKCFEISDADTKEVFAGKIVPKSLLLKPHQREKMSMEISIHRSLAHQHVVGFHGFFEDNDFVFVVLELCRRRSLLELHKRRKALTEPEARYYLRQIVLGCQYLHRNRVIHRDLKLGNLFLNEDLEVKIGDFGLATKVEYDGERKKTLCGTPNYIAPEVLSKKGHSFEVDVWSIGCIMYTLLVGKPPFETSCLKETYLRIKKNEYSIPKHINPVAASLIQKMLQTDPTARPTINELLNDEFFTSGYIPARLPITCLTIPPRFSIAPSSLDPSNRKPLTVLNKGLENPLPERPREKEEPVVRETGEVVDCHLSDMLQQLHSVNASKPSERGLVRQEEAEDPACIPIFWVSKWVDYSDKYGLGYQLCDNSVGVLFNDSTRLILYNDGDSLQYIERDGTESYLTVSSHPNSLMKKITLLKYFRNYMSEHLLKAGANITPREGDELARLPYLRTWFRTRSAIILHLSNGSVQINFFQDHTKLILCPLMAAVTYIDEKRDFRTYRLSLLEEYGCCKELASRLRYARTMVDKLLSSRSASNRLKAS

By EC50 is commonly meant the concentration giving half of the maximal effect. As to `O=C(NC1(O)C(=O)c2ccccc2C1=O)c1ccccc1` [N-(2-hydroxy-1,3-dioxo-2-indenyl)benzamide], the EC50 was greater than 50 µM. `CC(=O)N(N=C1Sc2ccccc2C1=O)c1ccccc1C` [N-(2-methylphenyl)-N-[(3-oxo-1-benzothiophen-2-ylidene)amino]acetamide] showed an EC50 greater than 50 µM. Consider `CC(=O)N(N=C1Sc2ccccc2C1=O)c1cccc(C)c1` [N-(3-methylphenyl)-N-[(3-oxidanylidene-1-benzothiophen-2-ylidene)amino]ethanamide], for which the EC50 is greater than 50 µM. In the case of `CC(C)N(Cc1cc2ccccc2[nH]c1=O)C(=O)c1cccnc1` [N-[(2-oxo-1H-quinolin-3-yl)methyl]-N-propan-2-ylpyridine-3-carboxamide] it was greater than 50 µM; in that of `CC(=O)N(N=C1Sc2ccccc2C1=O)c1ccccc1` [N-[(Z)-(3-ketobenzothiophen-2-ylidene)amino]-N-phenyl-acetamide], greater than 50 µM; in that of `Cc1cccc2[nH]c3c(N4CCN(C(=O)c5ccco5)CC4)ncnc3c12` [SMR000148910], greater than 50 µM.

On to `NC(=O)C1CCN(C2=C(Cl)C(=O)c3ccccc3C2=O)CC1` [SMR000180199], for which the EC50 is greater than 50 µM.

The compound `COC(=O)c1ccccc1NC1=CC(=NS(=O)(=O)c2cccs2)c2ccccc2C1=O` [methyl 2-[[(4E)-1-oxidanylidene-4-thiophen-2-ylsulfonylimino-naphthalen-2-yl]amino]benzoate] gave an EC50 greater than 50 µM.
